The text below walks through data of paper PMC8231969, “Characterization of Two NMN Deamidase Mutants as Possible Probes for an NMN Biosensor” (International Journal of Molecular Sciences, 2021).

Read-outs that look alike come from different tables or passages of the source.

The target in one assay is T1, S29A PncC (Escherichia coli, UniProt P0A6G3, S29A).
T1 construct: made in house; host or cells: E. coli BL21(DE3)
It counts as binding, E. coli. The source says: (§1) Experimental data were processed using the OriginPro 8.0 (OriginLab Corporation, Northampton, MA, USA). A non-linear curve analysis (Hill1 plot) was used for plotting the F0/F values in function of the metabolite concentration, to obtain the Kd value.

Another assay has as its target T2, K61Q PncC (Escherichia coli, UniProt P0A6G3, K61Q).
T2 construct: made in house; host or cells: E. coli BL21(DE3)
The assay is classed as binding, E. coli. As to the method: as §1
Percentage of the K61Q protein that would exist in complex with NMN in a cellular setting was calculated based on the Kd value, by using the equation: %=100/1+Kd/[NMN]

The test system of assay [1] is glutamine binding protein (GlnBP). The settings on record: GlnBP, high concentration of nucleotide.
Protocol: Steady-state measurements were performed using an ISS_K2 fluorometer (ISS, Urbana-Champaign, IL, USA), equipped with a one-cell temperature-controlled sample holder. […] Excitation and emission slit widths were fixed at 0.5 and 1.0 nm, respectively. […] The nucleotides were added to reach the indicated final concentration (from 0.18 to 96 µM) with an incubation interval of 10 min. Triplicate readings were done for each experimental point. Experiments were repeated three times (for NMN and NaMN) or twice (for all the other metabolites). Controls experiments were performed using the E. coli Glutamine Binding Protein (GlnBP, 3µM), with increasing concentration of NMN or NaMN, at the same conditions.
Percentages of reduction of fluorescence intensities compared to buffer, were calculated as follow: (normalized fluorescence in presence of analyte at a given [µM]/normalized fluorescence in presence of corresponding volume of buffer) × 100.

T1 sequence (P0A6G3 whole entry S29A): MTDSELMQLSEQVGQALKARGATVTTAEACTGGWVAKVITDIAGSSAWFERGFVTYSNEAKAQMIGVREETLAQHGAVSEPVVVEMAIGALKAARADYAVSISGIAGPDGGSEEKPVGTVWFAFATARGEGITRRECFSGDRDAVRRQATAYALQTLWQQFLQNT
T2 sequence (P0A6G3 whole entry K61Q): as the sequence (P0A6G3 whole entry S29A) above, with A29S, K61Q counted along it

`NC(=O)c1ccc[n+]([C@@H]2O[C@H](COP(=O)([O-])OP(=O)(O)OC[C@H]3O[C@@H](n4cnc5c(N)ncnc54)[C@H](O)[C@@H]3O)[C@@H](O)[C@H]2O)c1` [NAD, nicotinamide adenine dinucleotide]: the “S29A PncC fluorescence quenching (%) vs buffer” value on S29A PncC (nucleotide 0.185 µM) was determined as 0.52%; on S29A PncC (nucleotide 0.375 µM), 0.32%; on S29A PncC (nucleotide 0.75 µM), 0.80%; on S29A PncC (nucleotide 1.5 µM), 0%; at S29A PncC (nucleotide 3 µM), 0.19%; on S29A PncC (nucleotide 6 µM), 0.32%. In addition, the “S29A PncC fluorescence quenching (%) vs buffer” value on S29A PncC (nucleotide 12 µM) was found to be 1.35%; on S29A PncC (nucleotide 24 µM), 2.54%; on S29A PncC (nucleotide 48 µM) it was 4.58%. Besides, the “K61Q PncC fluorescence quenching (%) vs buffer” value at K61Q PncC (nucleotide 0.185 µM) is 0.63%; on K61Q PncC (nucleotide 0.375 µM) it was 1.39%; at K61Q PncC (nucleotide 0.75 µM) it was 1.57%; at K61Q PncC (nucleotide 1.5 µM), 0.80%; on K61Q PncC (nucleotide 3 µM) it was 0.85%; on K61Q PncC (nucleotide 6 µM) it was 0%. Further, the entries for the “K61Q PncC fluorescence quenching (%) vs buffer” value on K61Q PncC (nucleotide 12 µM), at K61Q PncC (nucleotide 24 µM) and at K61Q PncC (nucleotide 48 µM) were 0.65%, 0.36% and 0.72%, respectively. Also, in assay [1], the “reduction of fluorescence of GlnBP” value is 6.6%.

`NC(=O)c1ccc[n+]([C@@H]2O[C@H](COP(=O)(O)OP(=O)([O-])OC[C@H]3O[C@@H](n4cnc5c(N)ncnc54)[C@H](OP(=O)(O)O)[C@@H]3O)[C@@H](O)[C@H]2O)c1` [NADP]: the “S29A PncC fluorescence quenching (%) vs buffer” value is recorded as 0% on S29A PncC (nucleotide 0.185 µM); 0% on S29A PncC (nucleotide 0.375 µM); 0.67% at S29A PncC (nucleotide 0.75 µM); 1.60% on S29A PncC (nucleotide 1.5 µM); 2.74% on S29A PncC (nucleotide 3 µM); 2.87% at S29A PncC (nucleotide 6 µM). Besides, the “S29A PncC fluorescence quenching (%) vs buffer” value at S29A PncC (nucleotide 12 µM) is listed as 3.89%; at S29A PncC (nucleotide 24 µM), 4.31%; at S29A PncC (nucleotide 48 µM), 6.36%. Besides, the “K61Q PncC fluorescence quenching (%) vs buffer” value at K61Q PncC (nucleotide 0.185 µM) is 0%; on K61Q PncC (nucleotide 0.375 µM), 0.06%; on K61Q PncC (nucleotide 0.75 µM), 0.29%; at K61Q PncC (nucleotide 1.5 µM) it was 0.55%; on K61Q PncC (nucleotide 3 µM) it was 0.42%; on K61Q PncC (nucleotide 6 µM), 0%. Besides, the “K61Q PncC fluorescence quenching (%) vs buffer” value at K61Q PncC (nucleotide 12 µM) was found to be 1.20%; on K61Q PncC (nucleotide 24 µM), 1.59%; at K61Q PncC (nucleotide 48 µM), 2.90%; on K61Q PncC (nucleotide 96 µM) it was 5.1%. The “reduction of fluorescence of GlnBP” value in assay [1] amounted to 4.8%.

Take `NC(=O)c1ccc[n+]([C@@H]2O[C@H](CO)[C@@H](O)[C@H]2O)c1` [NR, nicotinamide riboside]: the “S29A PncC fluorescence quenching (%) vs buffer” value is given as 0% on S29A PncC (nucleotide 0.185 µM); 0.12% on S29A PncC (nucleotide 0.375 µM); 0.80% at S29A PncC (nucleotide 0.75 µM); 0.96% at S29A PncC (nucleotide 1.5 µM); 1.84% at S29A PncC (nucleotide 3 µM); 1.98% on S29A PncC (nucleotide 6 µM). Also, the “S29A PncC fluorescence quenching (%) vs buffer” value stood at 2.29% on S29A PncC (nucleotide 12 µM), 3.13% at S29A PncC (nucleotide 24 µM), 3.51% at S29A PncC (nucleotide 48 µM) and 4.48% on S29A PncC (nucleotide 96 µM (maximum quenching)). In addition, the “K61Q PncC fluorescence quenching (%) vs buffer” value worked out at 2.13% at K61Q PncC (nucleotide 0.185 µM); 2.97% at K61Q PncC (nucleotide 0.375 µM); 3.37% at K61Q PncC (nucleotide 0.75 µM); 3.71% on K61Q PncC (nucleotide 1.5 µM); 3.13% at K61Q PncC (nucleotide 3 µM); 2.36% at K61Q PncC (nucleotide 6 µM). Moreover, the “K61Q PncC fluorescence quenching (%) vs buffer” value on K61Q PncC (nucleotide 12 µM) was 2.7%; at K61Q PncC (nucleotide 24 µM), 2.1%; on K61Q PncC (nucleotide 48 µM), 1.79%. In assay [1], the “reduction of fluorescence of GlnBP” value is on record as “do not affect”.
